Source: patent US5811271A, “Process for producing L-ketohexose” (Kabushiki Kaisha Hayashibara Seibutsu Kagaku Kenkyujo, priority 1994, dated 1998)

Target: T1, D-ketohexose 3-epimerase (Pseudomonas cichorii, UniProt O50580)
T1 construct: The cells which had been recovered from 80 liters of the resultant culture were crushed by grinding; made in house; host or cells: Pseudomonas cichorii ST-24 (FERM BP-2736), the natural producer; not recombinant
Assay: Relative enzyme activity of purified D-ketohexose 3-epimerase on L-ketohexose substrates
Format: biochemical, Pseudomonas cichorii ST-24
Conditions: substrate in 0.1 M solution (pH 7.5), 11 units/g substrate of enzyme, 30° C., 24 hours; D-tagatose as control regarded as 100
Protocol: D-Ketohexose 3-epimerase was studied for relative enzyme activity on various L-ketohexoses. A purified D-ketohexose 3-epimerase obtained by the method in Example 1 was allowed to act on four different types of L-ketohexoses as substrates, i.e. L-psicose, L-fructose, L-sorbose and L-tagatose, to determine the enzyme activity on them. The reaction conditions were as follows: To either substrate in 0.1 M solution (pH 7.5) was added 11 units/g substrate of the enzyme and reacted at 30° C. for 24 hours. As a control, D-tagatose was used as substrate and the relative enzyme activity was regarded as 100.
The enzyme specimen thus obtained was assayed as follows: The reaction solution used in this assay consisted of 100 microliters of 50 mM Tris-HCl buffer (pH 7.5), 50 microliters 40 mM D-tagatose and 50 microliters of an enzyme solution. The enzymatic reaction was carried out at 30° C. for 60 minutes, and the formed D-sorbose was quantified on HPLC. One unit activity of the enzyme was defined as the amount of enzyme that epimerizes one micromol of D-tagatose into D-sorbose per minute.

Row | SMILES | Relative enzyme activity
1 | O=C(CO)[C@@H](O)[C@H](O)[C@@H](O)CO [L-Sorbose] | about 2
2 | O=C(CO)[C@H](O)[C@H](O)[C@@H](O)CO [L-Tagatose] | about 0.5
3 | O=C(CO)[C@@H](O)[C@@H](O)[C@@H](O)CO [L-Psicose] | about 20
4 | O=C(CO)[C@@H](O)[C@@H](O)[C@H](O)CO [D-Tagatose, reference compound] | 100
5 | O=C(CO)[C@H](O)[C@@H](O)[C@@H](O)CO [L-Fructose] | about 5
